Assay results taken from patent publication US20240269139A1, “COMPOUNDS FOR TARGETED PROTEIN DEGRADATION OF KINASES” (DANA-FARBER CANCER INSTITUTE, INC., priority 2020, published 2024).
Entries after “also recorded” stand apart in the source; their conditions may differ. Read-outs that look alike come from different tables or passages of the source.

Key:
[1] = test system: protein kinases in MOLT-4 cells; assay: Whole cell quantitative proteomics in MOLT-4 cells; conditions: MOLT-4, 1 μM, 5 h (FIG. 1J)
Description: (§1) Whole cell multiplexed quantitative proteomics was employed to measure changes in abundance of the proteome in response to treatment with each of the kinase degrader molecules relative to DMSO (Table 1, Appendix I).
(§2) Cells were treated with DMSO (biological triplicate) or degrader at indicated dose and time and cells were harvested by centrifugation. […] Precipitated protein was resuspended in 4 M Urea, 50 mM HEPES pH 7.4, followed by dilution to 1 M urea with the addition of 200 mM EPPS, pH 8. Proteins were first digested with LysC (1:50: enzyme:protein) for 12 hours at room temperature. The LysC digestion was diluted to 0.5 M Urea with 200 mM EPPS pH 8 followed by digestion with trypsin (1:50; enzyme:protein) for 6 hours at 37° C. Tandem mass tag (TMT) reagents (Thermo Fisher Scientific) were dissolved in anhydrous acetonitrile (ACN) according to manufacturer's instructions. […] The 10, 11, or 16-plex labeling reactions were performed for 1.5 hours at room temperature and the reaction quenched by the addition of hydroxylamine to a final concentration of 0.3% for 15 minutes at room temperature. The sample channels were combined at a 1:1 ratio, desalted using C18 solid phase extraction cartridges (Waters®) and analyzed by LC-MS for channel ratio comparison. Samples were then combined using the adjusted volumes determined in the channel ratio analysis and dried down in a speed vacuum. The combined sample was then resuspended in 1% formic acid, and acidified (pH 2-3) before being subjected to desalting with C18 SPE (Sep-Pak®, Waters®). Samples were then offline fractionated into 96 fractions by high pH reverse-phase HPLC (Agilent® LC1260) through an aeris peptide xb-c18 column (Phenomenex®) with mobile phase A containing 5% acetonitrile and 10 mM NH4HCO3 in LC-MS grade H2O, and mobile phase B containing 90% acetonitrile and 10 mM NH4HCO3 in LC-MS grade H2O (both pH 8.0). The 96 resulting fractions were then pooled in a non-continuous manner into 24 fractions and desalted using C18 solid phase extraction plates (SOLA®, Thermo Fisher Scientific) followed by subsequent mass spectrometry analysis.
(§3) Data were collected using an Orbitrap Fusion™ Lumos™ mass spectrometer (Thermo Fisher Scientific, San Jose, CA, USA) coupled with a Proxeon EASY-nLC™ 1200 LC pump (Thermo Fisher Scientific) or an Orbitrap Eclipse™ Tribrid™ mass spectrometer (Thermo Fisher Scientific, San Jose, CA, USA) coupled with an UltiMate™ 3000 RSLCnano System. Peptides were separated on an EasySpray™ ES803a/ES803a.rev2 75 μm inner diameter microcapillary column (ThermoFisher Scientific).
(§4) Data dependent MS2 spectra were acquired in the ion trap with a normalized collision energy (NCE) set at 35%, AGC target set to 1.8×10^4 and a maximum injection time of 120 ms. MS3 scans were acquired in the Orbitrap with HCD collision energy set to 55%. AGC target set to 2×10^5, maximum injection time of 150 ms, resolution at 50,000 and with a maximum synchronous precursor selection (SPS) precursors set to 10.
(§5) Proteome Discoverer™ 2.1, 2.2 or 2.4 (Thermo Fisher Scientific) was used for .RAW file processing and controlling peptide and protein level false discovery rates, assembling proteins from peptides, and protein quantification from peptides.

[2] = test system: protein kinases (human kinome); format: cell-based; conditions: for kinases the bifunctional compound degrades: as stated for the structure in the embodiments; for Kinase hits: kinases significantly downregulated vs DMSO (fold change cutoff −1.25, P-value<0.01), ≤8 h, 0.1-5 μM degrader, 7 cell lines; for Total no. kinase hits: number of degraded kinases per library compound
[3] = molecular target: protein kinases (human kinome) (Homo sapiens, UniProt Q00537); format: cell-based
[4] = molecular target: extended human kinome (kinase-like proteins) (Homo sapiens, UniProt Q16875); assay: Whole cell quantitative proteomics: extended kinome hits; conditions: Accession Q16875; experiment wp134
Description: as §1, §2, §3, §4, §5

[5] = molecular target: protein kinases (human kinome) (Homo sapiens, UniProt O43683); format: cell-based; conditions: for logFC: BUB1 (O43683); for logFC BUB1 (O43683): direction down
Chain of protein kinases (human kinome) (Homo sapiens, UniProt O43683) (O43683 whole entry): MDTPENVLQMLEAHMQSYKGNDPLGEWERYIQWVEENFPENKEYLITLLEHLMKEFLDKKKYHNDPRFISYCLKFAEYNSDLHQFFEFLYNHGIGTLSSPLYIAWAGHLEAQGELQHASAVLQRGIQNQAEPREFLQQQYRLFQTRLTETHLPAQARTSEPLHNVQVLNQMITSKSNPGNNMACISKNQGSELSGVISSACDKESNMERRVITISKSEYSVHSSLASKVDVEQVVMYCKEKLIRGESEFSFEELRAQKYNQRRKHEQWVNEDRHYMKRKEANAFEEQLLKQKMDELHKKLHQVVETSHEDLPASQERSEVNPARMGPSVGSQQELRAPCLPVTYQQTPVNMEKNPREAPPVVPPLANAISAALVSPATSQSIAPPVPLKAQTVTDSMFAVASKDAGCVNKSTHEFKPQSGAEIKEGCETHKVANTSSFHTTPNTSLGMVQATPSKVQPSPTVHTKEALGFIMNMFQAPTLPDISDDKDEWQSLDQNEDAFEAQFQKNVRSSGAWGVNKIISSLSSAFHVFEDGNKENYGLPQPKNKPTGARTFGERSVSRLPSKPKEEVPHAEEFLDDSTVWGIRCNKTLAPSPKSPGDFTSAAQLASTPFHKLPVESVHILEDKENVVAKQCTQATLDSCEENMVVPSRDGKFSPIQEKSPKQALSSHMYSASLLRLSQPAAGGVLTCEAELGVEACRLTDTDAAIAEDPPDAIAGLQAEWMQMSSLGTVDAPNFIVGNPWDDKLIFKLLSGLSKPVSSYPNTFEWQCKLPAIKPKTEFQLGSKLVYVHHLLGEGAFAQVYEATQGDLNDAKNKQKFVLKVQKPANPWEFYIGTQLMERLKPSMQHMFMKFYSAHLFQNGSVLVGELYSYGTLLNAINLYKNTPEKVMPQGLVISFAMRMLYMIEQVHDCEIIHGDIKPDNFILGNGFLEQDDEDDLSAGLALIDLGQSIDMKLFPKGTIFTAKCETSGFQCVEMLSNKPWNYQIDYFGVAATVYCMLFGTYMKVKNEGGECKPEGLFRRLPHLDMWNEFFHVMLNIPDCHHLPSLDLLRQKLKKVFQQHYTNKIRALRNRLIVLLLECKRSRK

[6] = molecular target: protein kinases (human kinome) (Homo sapiens, UniProt Q9H0K1); format: cell-based; conditions: experiment wp134
Chain of protein kinases (human kinome) (Homo sapiens, UniProt Q9H0K1) (Q9H0K1 whole entry): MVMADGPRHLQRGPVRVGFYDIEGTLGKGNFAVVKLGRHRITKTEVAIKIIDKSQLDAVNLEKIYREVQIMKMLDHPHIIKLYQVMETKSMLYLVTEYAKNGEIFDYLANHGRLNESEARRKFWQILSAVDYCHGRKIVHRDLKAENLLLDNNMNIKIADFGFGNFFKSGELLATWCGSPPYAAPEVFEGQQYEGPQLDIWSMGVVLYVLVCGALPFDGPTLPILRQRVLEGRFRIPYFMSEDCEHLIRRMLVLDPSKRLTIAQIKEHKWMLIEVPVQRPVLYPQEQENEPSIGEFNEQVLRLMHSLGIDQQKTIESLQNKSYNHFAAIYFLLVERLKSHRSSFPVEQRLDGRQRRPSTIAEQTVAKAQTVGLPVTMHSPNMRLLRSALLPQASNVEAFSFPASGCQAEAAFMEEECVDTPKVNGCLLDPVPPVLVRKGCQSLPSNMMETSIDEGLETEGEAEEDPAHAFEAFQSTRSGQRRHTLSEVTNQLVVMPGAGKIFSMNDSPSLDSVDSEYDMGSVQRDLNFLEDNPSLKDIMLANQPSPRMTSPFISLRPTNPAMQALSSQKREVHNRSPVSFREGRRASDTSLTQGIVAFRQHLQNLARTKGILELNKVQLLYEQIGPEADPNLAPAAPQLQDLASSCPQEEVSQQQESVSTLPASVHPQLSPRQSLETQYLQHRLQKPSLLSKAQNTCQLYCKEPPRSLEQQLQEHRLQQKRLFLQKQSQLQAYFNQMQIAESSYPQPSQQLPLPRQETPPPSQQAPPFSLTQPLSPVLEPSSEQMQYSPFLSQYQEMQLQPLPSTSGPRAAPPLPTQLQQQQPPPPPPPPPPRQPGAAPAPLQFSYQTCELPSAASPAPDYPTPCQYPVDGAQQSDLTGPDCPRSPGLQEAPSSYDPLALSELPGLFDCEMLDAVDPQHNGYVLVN

[7] = molecular target: protein kinases (human kinome) (Homo sapiens, UniProt P51451); format: cell-based; conditions: for logFC BLK: BLK (P51451), direction down; for logFC of BLK (P51451): down
Chain of protein kinases (human kinome) (Homo sapiens, UniProt P51451) (P51451 whole entry): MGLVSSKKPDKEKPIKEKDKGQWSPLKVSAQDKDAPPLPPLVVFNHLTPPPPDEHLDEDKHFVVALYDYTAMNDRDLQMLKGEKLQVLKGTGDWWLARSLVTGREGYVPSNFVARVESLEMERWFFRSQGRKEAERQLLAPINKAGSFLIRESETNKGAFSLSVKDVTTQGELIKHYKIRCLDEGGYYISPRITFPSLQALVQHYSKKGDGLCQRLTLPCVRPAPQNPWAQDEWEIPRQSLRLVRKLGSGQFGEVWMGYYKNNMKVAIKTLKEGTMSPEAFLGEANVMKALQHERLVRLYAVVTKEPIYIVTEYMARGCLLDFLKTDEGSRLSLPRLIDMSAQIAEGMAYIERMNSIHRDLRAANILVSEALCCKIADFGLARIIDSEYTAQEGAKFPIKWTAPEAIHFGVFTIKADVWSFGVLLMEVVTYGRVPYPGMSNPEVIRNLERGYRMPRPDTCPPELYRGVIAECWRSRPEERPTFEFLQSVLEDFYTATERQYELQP

[8] = molecular target: protein kinases (human kinome) (Homo sapiens, UniProt P11802); format: cell-based; conditions: experiment wp152
Chain of protein kinases (human kinome) (Homo sapiens, UniProt P11802) (P11802 whole entry): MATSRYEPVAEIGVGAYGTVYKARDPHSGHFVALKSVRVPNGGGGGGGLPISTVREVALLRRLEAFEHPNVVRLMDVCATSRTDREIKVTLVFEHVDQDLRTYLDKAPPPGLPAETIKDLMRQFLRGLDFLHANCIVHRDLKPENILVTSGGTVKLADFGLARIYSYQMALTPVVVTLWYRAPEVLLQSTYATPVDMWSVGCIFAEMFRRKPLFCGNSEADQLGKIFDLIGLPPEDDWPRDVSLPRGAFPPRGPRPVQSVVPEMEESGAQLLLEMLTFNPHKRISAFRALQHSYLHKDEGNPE

[9] = molecular target: protein kinases (human kinome) (Homo sapiens, UniProt Q07912); format: cell-based
Chain of protein kinases (human kinome) (Homo sapiens, UniProt Q07912) (Q07912 whole entry): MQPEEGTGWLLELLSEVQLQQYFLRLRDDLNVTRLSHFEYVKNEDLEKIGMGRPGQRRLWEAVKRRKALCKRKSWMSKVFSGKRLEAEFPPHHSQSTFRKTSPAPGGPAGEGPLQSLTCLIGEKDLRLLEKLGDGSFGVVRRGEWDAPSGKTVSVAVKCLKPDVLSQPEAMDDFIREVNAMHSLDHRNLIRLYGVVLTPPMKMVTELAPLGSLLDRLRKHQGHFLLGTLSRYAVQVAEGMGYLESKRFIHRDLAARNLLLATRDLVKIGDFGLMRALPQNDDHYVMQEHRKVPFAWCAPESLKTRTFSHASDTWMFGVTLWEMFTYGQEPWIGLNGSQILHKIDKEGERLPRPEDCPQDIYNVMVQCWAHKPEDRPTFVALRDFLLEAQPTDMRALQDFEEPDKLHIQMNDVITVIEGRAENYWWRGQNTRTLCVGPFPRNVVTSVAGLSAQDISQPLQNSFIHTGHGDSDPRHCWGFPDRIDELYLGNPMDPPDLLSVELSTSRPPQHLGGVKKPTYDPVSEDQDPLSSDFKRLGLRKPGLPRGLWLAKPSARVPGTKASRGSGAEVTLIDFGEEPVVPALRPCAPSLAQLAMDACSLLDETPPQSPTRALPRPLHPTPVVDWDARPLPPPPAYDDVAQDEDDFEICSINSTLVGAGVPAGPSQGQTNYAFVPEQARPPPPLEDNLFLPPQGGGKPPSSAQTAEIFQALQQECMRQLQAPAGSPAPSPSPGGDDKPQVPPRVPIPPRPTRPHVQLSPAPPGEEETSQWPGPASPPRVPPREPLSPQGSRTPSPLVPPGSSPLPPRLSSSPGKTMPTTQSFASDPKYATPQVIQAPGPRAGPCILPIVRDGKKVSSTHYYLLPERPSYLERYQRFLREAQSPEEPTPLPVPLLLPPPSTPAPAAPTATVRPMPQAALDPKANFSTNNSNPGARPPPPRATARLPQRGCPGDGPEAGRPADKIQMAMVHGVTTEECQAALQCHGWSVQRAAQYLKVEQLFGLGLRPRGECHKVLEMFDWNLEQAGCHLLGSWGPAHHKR

[10] = molecular target: T1, protein kinases (human kinome) (Homo sapiens, UniProt Q9UEE5); format: cell-based; conditions: STK17A Q9UEE5; experiment wp134
T1 sequence (Q9UEE5 1-414): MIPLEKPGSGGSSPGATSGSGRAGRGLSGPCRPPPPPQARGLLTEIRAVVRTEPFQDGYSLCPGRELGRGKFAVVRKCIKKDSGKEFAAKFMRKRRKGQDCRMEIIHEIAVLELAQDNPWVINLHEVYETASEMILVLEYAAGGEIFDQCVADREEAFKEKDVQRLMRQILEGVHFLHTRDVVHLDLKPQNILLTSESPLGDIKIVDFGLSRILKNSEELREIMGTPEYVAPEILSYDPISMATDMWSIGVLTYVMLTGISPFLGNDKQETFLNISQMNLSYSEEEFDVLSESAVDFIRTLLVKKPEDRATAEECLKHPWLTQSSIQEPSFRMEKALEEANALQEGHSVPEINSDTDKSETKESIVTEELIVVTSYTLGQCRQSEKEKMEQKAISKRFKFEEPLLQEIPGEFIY

[11] = molecular target: T2, protein kinases (human kinome) (Homo sapiens, UniProt P42680); format: cell-based; conditions: TEC (P42680), experiment wp134
T2 sequence (P42680 1-631): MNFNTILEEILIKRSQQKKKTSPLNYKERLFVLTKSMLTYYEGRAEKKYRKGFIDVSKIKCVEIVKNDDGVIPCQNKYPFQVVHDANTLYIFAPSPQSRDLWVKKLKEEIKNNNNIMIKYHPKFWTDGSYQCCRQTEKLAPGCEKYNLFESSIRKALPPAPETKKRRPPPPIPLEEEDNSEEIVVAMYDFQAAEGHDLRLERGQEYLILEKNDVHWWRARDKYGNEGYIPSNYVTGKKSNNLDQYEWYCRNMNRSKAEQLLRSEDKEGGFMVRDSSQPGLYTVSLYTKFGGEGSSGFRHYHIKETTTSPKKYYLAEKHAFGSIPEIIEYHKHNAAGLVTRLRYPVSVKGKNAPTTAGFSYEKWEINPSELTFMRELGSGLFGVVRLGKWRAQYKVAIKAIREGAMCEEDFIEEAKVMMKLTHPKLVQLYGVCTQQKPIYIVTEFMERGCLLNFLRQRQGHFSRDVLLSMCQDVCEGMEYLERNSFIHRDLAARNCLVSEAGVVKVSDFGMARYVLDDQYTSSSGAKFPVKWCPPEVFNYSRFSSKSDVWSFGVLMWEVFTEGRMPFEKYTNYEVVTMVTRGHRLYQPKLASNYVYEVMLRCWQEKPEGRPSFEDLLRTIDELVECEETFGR

[12] = molecular target: protein kinases (human kinome) (Homo sapiens, UniProt P53671); format: cell-based; conditions: experiment wp152
Chain of protein kinases (human kinome) (Homo sapiens, UniProt P53671) (P53671 whole entry): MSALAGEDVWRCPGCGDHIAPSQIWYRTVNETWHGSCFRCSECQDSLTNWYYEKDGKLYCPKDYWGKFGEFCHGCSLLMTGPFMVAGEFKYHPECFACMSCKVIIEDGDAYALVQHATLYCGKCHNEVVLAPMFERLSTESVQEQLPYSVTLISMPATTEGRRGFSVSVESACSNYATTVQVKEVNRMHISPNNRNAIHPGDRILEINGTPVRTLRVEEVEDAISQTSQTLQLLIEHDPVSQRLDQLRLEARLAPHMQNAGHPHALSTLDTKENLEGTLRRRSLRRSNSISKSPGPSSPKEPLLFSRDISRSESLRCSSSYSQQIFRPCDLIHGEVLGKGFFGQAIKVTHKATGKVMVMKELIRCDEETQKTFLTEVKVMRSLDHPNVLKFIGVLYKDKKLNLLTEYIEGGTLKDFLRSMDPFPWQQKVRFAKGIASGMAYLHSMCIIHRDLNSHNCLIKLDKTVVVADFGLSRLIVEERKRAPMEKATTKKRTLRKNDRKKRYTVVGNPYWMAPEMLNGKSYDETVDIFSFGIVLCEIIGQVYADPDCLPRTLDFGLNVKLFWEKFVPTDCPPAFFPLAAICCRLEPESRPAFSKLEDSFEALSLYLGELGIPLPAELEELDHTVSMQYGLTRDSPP

[13] = molecular target: protein kinases (human kinome) (Homo sapiens, UniProt P35790); format: cell-based; conditions: CHKA P35790; experiment wp152
Chain of protein kinases (human kinome) (Homo sapiens, UniProt P35790) (P35790 whole entry): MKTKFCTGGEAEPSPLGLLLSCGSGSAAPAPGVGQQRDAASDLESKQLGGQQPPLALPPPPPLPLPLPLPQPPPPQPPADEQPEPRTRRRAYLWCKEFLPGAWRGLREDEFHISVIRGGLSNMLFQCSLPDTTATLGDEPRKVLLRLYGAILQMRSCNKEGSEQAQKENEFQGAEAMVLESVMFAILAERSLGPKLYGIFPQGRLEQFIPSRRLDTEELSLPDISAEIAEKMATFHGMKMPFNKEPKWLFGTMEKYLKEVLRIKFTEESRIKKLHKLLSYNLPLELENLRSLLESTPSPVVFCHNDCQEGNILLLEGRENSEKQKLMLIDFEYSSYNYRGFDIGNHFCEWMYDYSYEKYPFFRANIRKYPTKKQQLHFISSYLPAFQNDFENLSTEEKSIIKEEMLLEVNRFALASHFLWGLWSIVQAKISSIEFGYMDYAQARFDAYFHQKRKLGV

[14] = molecular target: T3, protein kinases (human kinome) (Homo sapiens, UniProt Q8TAS1); format: cell-based; conditions: experiment wp134
T3 sequence (Q8TAS1 1-419): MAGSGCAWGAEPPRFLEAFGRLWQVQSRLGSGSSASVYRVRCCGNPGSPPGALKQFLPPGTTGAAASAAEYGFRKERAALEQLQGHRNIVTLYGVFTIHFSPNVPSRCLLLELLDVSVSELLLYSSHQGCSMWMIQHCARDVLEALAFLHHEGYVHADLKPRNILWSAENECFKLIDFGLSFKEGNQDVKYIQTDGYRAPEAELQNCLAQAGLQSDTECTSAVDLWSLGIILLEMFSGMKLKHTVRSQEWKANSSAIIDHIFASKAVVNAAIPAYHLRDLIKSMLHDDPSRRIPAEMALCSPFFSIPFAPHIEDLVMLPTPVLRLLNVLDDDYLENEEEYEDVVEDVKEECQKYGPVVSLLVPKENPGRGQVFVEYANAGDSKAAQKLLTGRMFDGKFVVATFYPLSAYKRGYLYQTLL

Cc1ncsc1-c1ccc([C@H](C)NC(=O)[C@@H]2C[C@@H](O)CN2C(=O)[C@@H](NC(=O)CCOCCOCCNc2nccc(-c3sc(C(C)(C)C)nc3-c3cccc(NS(=O)(=O)c4c(F)cccc4F)c3F)n2)C(C)(C)C)cc1 [DD-03-156, (2S,4R)-1-((S)-2-(3-(2-(2-((4-(2-(tert-butyl)-4-(3-((2,6-difluorophenyl)sulfonamido)-2-fluorophenyl)thiazol-5-yl)pyrimidin-2-yl)amino)ethoxy)ethoxy)propanamido)-3,3-dimethylbutanoyl)-4-hydroxy-N—((S)-1-(4-(4-methylthiazol-5-yl)phenyl)ethyl)pyrrolidine-2-2377 carboxamide]
degradation profile (potency and selectivity) [1]: potent and selective degradation of only CDK17 and LIMK2; also recorded: exquisite | kinases the bifunctional compound degrades [2]: CDK17, LIMK1, and LIMK2 | Kinase hits [2]: CDK17, LIMK1, LIMK2 | Total no. kinase hits [2]: 3 | preference for degrading CDK17 [3]: strong preference for degrading CDK17

CN[C@@H](C)C(=O)N[C@H](C(=O)N1CCC[C@H]1c1nc(C(=O)c2cccc(OCCCCCn3cc(CN4CCN(c5ccc(Nc6ncc7c(n6)N(C)C(=O)N(c6cc(NC(=O)c8cccc(C(F)(F)F)c8)ccc6C)C7)cn5)CC4)nn3)c2)cs1)C1CCCCC1 [DB118430]
logFC PFKFB3 [4]: −0.4616 | logFC ([5]; experiment wp134): −0.3866 | logFC ([5]; experiment wp152): −0.3814 | logFC BUB1 (O43683) ([5]; Experiment wp134): −0.3866 | logFC BUB1 (O43683) ([5]; Experiment wp152): −0.3814 | logFC of SIK2 ([6]; Accession Q9H0K1): −0.3803 | logFC SIK2 (Q9H0K1) ([6]; direction of change down): −0.3803 | logFC BLK ([7]; experiment wp134): −0.5826 | logFC BLK ([7]; experiment wp152): −0.9023 | logFC of BLK (P51451) ([7]; Experiment wp134): −0.5826 | logFC of BLK (P51451) ([7]; Experiment wp152): −0.9023 | logFC CDK4 (P11802) [8]: −0.3644 | logFC TNK2 (Q07912-1) ([9]; Experiment wp134, direction down): −0.575 | logFC TNK2 ([9]; TNK2 (Q07912-1), experiment wp134): −0.575 | logFC [10]: −0.3497 | logFC STK17A [10]: −0.3497 | logFC [11]: −0.5666 | logFC ([11]; direction down): −0.5666 | logFC LIMK2 ([12]; LIMK2 (P53671), down): −0.4571 | logFC of LIMK2 ([12]; LIMK2 P53671): −0.4571 | logFC [13]: −0.3601 | kinases the bifunctional compound degrades [2]: BLK, BUB1, CDK4, LIMK2, SIK2, STK17A, TEC, TNK2, and UHMK1 | Kinase hits [2]: BLK, BUB1, CDK4, LIMK2, SIK2, STK17A, TEC, TNK2, UHMK1 | Total no. kinase hits [2]: 9 | logFC UHMK1 ([14]; Accession Q8TAS1, direction down): −0.4944 | logFC UHMK1 ([14]; UHMK1 (Q8TAS1)): −0.4944
